Assays:
[1] = tested on: SK-N-SH (Neuroblastoma); assay: Clonogenicity of established tumor cell lines (soft agar); type: cell-based, human; settings: SK-N-SH
Procedure: (§1) Inhibition of tumor growth was tested using cell lines as follows: […]

[2] = tested on: SMS-KAN (Neuroblastoma); assay: as above; type: cell-based, human
Procedure: as §1

[3] = tested on: 53 primary tumor cell lines; assay: Inhibition of clonogenicity of primary tumor cells; type: cell-based, human
Text: The tested tumor cells were from 11 non-small cell lung carcinomas, 10 breast carcinomas, 10 gastric carcinomas, 10 ovarian carcinomas, and 10 CNS tumors.

[4] = tested on: established tumor cell lines; assay: Clonogenicity of established tumor cell lines, all lines together; type: cell-based, human; settings: all cell lines
Procedure: as §1

[5] = tested on: P3HR-1 EBV-positive lymphoma cells; assay: [3H]-thymidine incorporation in EBV-positive lymphoma cells; type: cell-based, human; settings: 72 hours
Procedure: The effect of GOMB to AB was compared on EBV virus-associated tumors. EBV-positive cells from P3HR-1, a human lymphoma cell line, were incubated in growth medium with the specified concentration of GOMB, AB, ganciclovir (GC), or combination of these, for 72 hours, seeded in 96-well plates and pulsed with 1 μCi [^3 H]-thymidine/well during the last 16 hours of exposure to the compounds. Cells were harvested with a cell harvester, using glass microfiber filters. The incorporation of [^3 H]-thymidine was determined by retention of the acid insoluble fraction on filters and is expressed as CPM.

[6] = tested on: Au565 breast carcinoma cells; assay: Differentiation by lipid staining; type: cell-based, human; settings: 10 μM
Text: Lipid staining and/or immunochemical staining of casein can be used as a marker for cellular differentiation of breast cancer cells (Bacus et al., Md. Carcin. 3:350-362, 1990). Casein detection can be done by histochemical staining of breast cancer cells using a human antibody to human casein as described by Cheung et al., J. Clin. Invest. 75:1722-1728,which is incorporated by reference in its entirety.
In the case of the human breast carcinoma cell line Au565, 100%. Of the cells treated with 10 μM GOMB were positive for lipid staining whereas less than 1% of cells treated with the same concentration of AB were positive for lipid staining.

[7] = tested on: CFPAC cells; assay: SRB cell proliferation assay; type: cell-based
Procedure: (§2) The inhibition of cell proliferation was measured in the indicated cancer cell lines using the sulforhoamine B (SRB) assay as described by Monks et al., J. Natl. Can. Inst. […] The SRB assay is used to screen for anti-cancer drugs.

[8] = tested on: HL-60 cells; assay: SRB cell proliferation assay; type: cell-based; settings: Homo sapiens; HL-60, SRB
Procedure: as §2

[9] = tested on: HT-29 cells; assay: SRB cell proliferation assay; type: cell-based; settings: Homo sapiens; HT-29, SRB
Procedure: as §2

[10] = tested on: MCF7 cells; assay: SRB cell proliferation assay; type: cell-based; settings: Homo sapiens
Procedure: as §2

[11] = tested on: cancer cell lines (CFPAC, HL-60, HT-29, MCF7); assay: SRB cell proliferation assay, all cell lines together; type: cell-based
Procedure: as §2

[12] = tested on: HL-60 cells; assay: Induction of apoptosis (propidium iodide, flow cytometry); type: cell-based, human; settings: 3 days
Procedure: (§3) Apoptosis was measured as described by Telford et al., 1991, Cell Physiol. 24:447-459, in HL-60 cells and in the human erthroblastic cell line, K-562. Cells were treated with COMB for 3 days, fixed, stained with propidium iodine and analyzed by flow cytometrly for cell cycle distribution. […] This region consisted of cells with fragmented DNA.

[13] = tested on: K-562 cells; assay: as above; type: cell-based, human; settings: 3 days
Procedure: as §3

[14] = tested on: MCF-7 cells (WAF); assay: Apoptosis in breast cancer cells, staining with WAF antibody / Western blot; type: cell-based, human
Procedure: Induction of apoptosis by COMB and AB in MCF-7 cells was evaluated by staining cells with the WAF antibody and by Western blot analysis as described by Bacus et al., 1996, Oncogene 12:2535-2547.

[15] = tested on: K562 cells (HbF); assay: Hb-containing K562 cells by benzidine staining; type: cell-based, human; settings: 5 days
Procedure: (§4) Hb Measurement: HB was measured by benzidine staining of K562 cells after 5 days exposure to GOMB or AB according to the procedure of Fibach et al. (1989) [full cite]. Quantitative measurement of HbF in K562 culture or human erythroid cultures was determined by ion-exchange high pressure liquid chromatography (HPLC) as described by Fibach et al., Blood 81:1630-1635, 1993.
(§5) K562 cells: K562 is an erthroblast cell line that develops some properties of erythroid, megakaryocyte or monocyte cells, depending on the specific stimulus, when induced by different chemicals. K562 cells were grown in RPMI with 10% FCS, supplemented with 2 mM glutamine. Cells were incubated at 37° C. in a humidified, 5% CO2 incubator.

[16] = tested on: K562 cells (HbF); assay: HbF synthesis in K562 cells (ion-exchange HPLC); type: cell-based, human
Procedure: as §5

[17] = tested on: erythroid cells from peripheral blood (HbF); assay: HbF in cultured erythroid cells; type: cell-based; settings: Homo sapiens; 0.2 mM, relative to untreated control cultures; read-out: increase of HbF in cultured erythroid cells
Procedure: as §4
Erythroid cells: Erythroid cells were isolated from peripheral blood of healthy individuals by the method of Fibach (1993).

[18] = Homo sapiens, SMS-KAN clonogenicity

CCCC(=O)OCOC(=O)CCCC(=O)O [GOMB, mono-(butyroyloxymethyl)glutarate]
AB/GOMB IC50 Ratio [1]: 35.6
AB/GOMB IC90 Ratio [1]: 37.8
IC50 [2, 18]: 27 µM
IC90 [2, 18]: 80 µM
AB/GOMB IC50 Ratio ([2]; SMS-KAN): 42
AB/GOMB IC90 Ratio ([2]; SMS-KAN): 26
IC50 ([3]; Homo sapiens): 34 µM
IC90 ([3]; Homo sapiens): 78 µM
AB/GOMB IC50 Ratio ([3]; average): 13.9
AB/GOMB IC90 Ratio ([3]; average): 27.3
ratio of IC50 AB:IC50 GOMB, median [4]: 28.5
ratio of IC90 AB:IC90 GOMB, median [4]: 53
ratio of IC90 AB:IC90 GOMB, range [4]: 26-342 fold
potency relative to AB in inhibiting EBV-positive lymphoma cells [5]: 10 fold
cells positive for lipid staining [6]: 100%
IC50 [7]: 32.5 µM
IC90 [7]: 41 µM
IC50 [8]: 24.5 µM
IC90 [8]: 53.6 µM
IC50 [9]: 98.2 µM
IC90 [9]: 123 µM
IC50 [10]: 109 µM
IC90 [10]: 218 µM
activity relative to AB by IC50 and IC90 values [11]: at least 100 fold
% apoptotic cells HL-60 ([12]; 5.0 μM): 9.4%
% apoptotic cells HL-60 ([12]; 12.5 μM): 14.9%
% apoptotic cells HL-60 ([12]; 25.0 μM): 15.8%
% apoptotic cells HL-60 ([12]; 37.5 μM): 36.3%
% apoptotic cells K-562 ([13]; 12.5 μM): 9%
% apoptotic cells K-562 ([13]; 25.0 μM): 18%
% Cells Expressing WAF ([14]; 10 μM): 36%
% Cells Expressing WAF ([14]; 25 μM): 34%
% Cells Expressing WAF ([14]; 50 μM): 79%
% Cells Expressing WAF ([14]; 100 μM): 81%
increase in percentage of cells expressing WAF ([14]; versus 13% in the controls): 623%
concentration inducing apoptosis, lower than AB ([14]; versus AB): 10 fold
Percentage K562 Cells Containing HbF ([15]; 0.01 mM): 6.3 ± 1.15%
Percentage K562 Cells Containing HbF ([15]; 0.05 mM): 12.3 ± 5.3%
Percentage K562 Cells Containing HbF ([15]; 0.10 mM): 29%
HbF Synthesis in K562 Cells ([16]; 0.01 mM): 1.54 µg/mL
HbF Synthesis in K562 Cells ([16]; 0.05 mM): 3.21 µg/mL
HbF Synthesis in K562 Cells ([16]; 0.10 mM): 5.0 µg/mL
activation at 200 µM [17]: 49.5%

Reference: patent publication US6130248A, “Tricarboxylic acid-containing oxyalkyl esters and uses thereof” (Bar-ILAn University, priority 1996, dated 2000)
